Experimental data as given in ChEMBL document CHEMBL1201862, “PubChem BioAssay data set” (2004).
“And” between values parts separate entries of the source, which are not always exact repeats. Equal values may be shown once.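 Cultured in 96-well plates, cells were exposed to test compound for 48 hours across five concentrations. At the GI50, growth is halved.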 The source made the active and inactive calls. Rule as the data show it: active = GI50 up to about 1.1 µM and inactive = higher.

Legend:
Test in all cases: inhibition of tumour cell growth, NCI panel, 48 h
NCI-H23 = system: NCI-H23
HCT-15 = system: HCT-15
RXF 393 = system: RXF 393
HL-60 = system: HL-60
EKVX = system: EKVX
MDA-MB-435 = system: MDA-MB-435
SNB-19 = system: SNB-19
KM12 = system: KM12
OVCAR-4 = system: OVCAR-4
SF-268 = system: SF-268
CCRF-CEM = system: CCRF-CEM
SNB-75 = system: SNB-75
HT-29 = system: HT-29
TK-10 = system: TK-10
A498 = system: A498
U-251 = system: U-251
T47D = system: T47D
MOLT-4 = system: MOLT-4
CAKI-1 = system: CAKI-1
OVCAR-5 = system: OVCAR-5
HOP-92 = system: HOP-92
HOP-62 = system: HOP-62
SK-MEL-28 = system: SK-MEL-28
SK-MEL-2 = system: SK-MEL-2
SF-295 = system: SF-295
COLO 205 = system: COLO 205
SK-OV-3 = system: SK-OV-3
SW-620 = system: SW-620
K562 = system: K562
MCF7 = system: MCF7
SF-539 = system: SF-539
SR = system: SR
M14 = system: M14
IGROV-1 = system: IGROV-1
MDA-MB-231 = system: MDA-MB-231
OVCAR-8 = system: OVCAR-8
SN12C = system: SN12C
UACC-62 = system: UACC-62
RPMI-8226 = system: RPMI-8226
786-0 = system: 786-0
LOX IMVI = system: LOX IMVI
MDA-N = system: MDA-N
HCC 2998 = system: HCC 2998
Malme-3M = system: Malme-3M
SK-MEL-5 = system: SK-MEL-5
DU-145 = system: DU-145
PC-3 = system: PC-3
UACC-257 = system: UACC-257
A549 = system: A549

Nc1nc(Nc2ccccc2)sc1C(=O)c1ccc(Cl)cc1
GI50 (NCI-H23): 8.17 µM (inactive)
GI50 (HCT-15): > 100 µM
GI50 (RXF 393): 2.69 µM (inactive)
GI50 (HL-60): > 100 µM (inactive)
GI50 (EKVX): > 58.9 µM (inactive)
GI50 (MDA-MB-435): 1.3 µM (inactive)
GI50 (SNB-19): 3.24 µM (inactive)
GI50 (KM12): > 100 µM (inactive)
GI50 (OVCAR-4): 0.748 µM (active)
GI50 (SF-268): 1.35 µM (inactive)
GI50 (CCRF-CEM): > 100 µM (inactive)
GI50 (SNB-75): 2.48 µM (inactive)
GI50 (HT-29): > 100 µM (inactive)
GI50 (TK-10): 5.12 µM (inactive)
GI50 (A498): 2.4 µM (inactive)
GI50 (U-251): 2.69 µM (inactive)
GI50 (T47D): > 95.1 µM (inactive)
GI50 (MOLT-4): 8.99 µM (inactive)
GI50 (CAKI-1): 0.71 µM (active)
GI50 (OVCAR-5): > 100 µM (inactive)
GI50 (HOP-92): 3.39 µM (inactive)
GI50 (HOP-62): 2.88 µM (inactive)
GI50 (SK-MEL-28): > 100 µM (inactive)
GI50 (SK-MEL-2): 15.1 µM (inactive)
GI50 (SF-295): 3.7 µM (inactive)
GI50 (COLO 205): > 100 µM (inactive)
GI50 (SK-OV-3): 2.46 µM (inactive)
GI50 (SW-620): 4.13 µM (inactive)
GI50 (K562): > 100 µM (inactive)
GI50 (MCF7): 4.39 µM (inactive)
GI50 (SF-539): > 100 µM (inactive)
GI50 (SR): 1.36 µM (inactive)
GI50 (M14): > 100 µM (inactive)
GI50 (IGROV-1): 3.72 µM (inactive)
GI50 (MDA-MB-231): 4.3 µM (inactive)

COc1ccc(C2=C(OC(C)=O)c3cccn3-c3ccc(Cl)cc3S2)cc1
GI50 (OVCAR-8): 6.53 µM (inactive)
GI50 (SN12C): 3.74 µM (inactive)
GI50 (NCI-H23): 4.52 µM (inactive)
GI50 (HCT-15): 3.62 µM
GI50 (UACC-62): 4.48 µM (inactive)
GI50 (RPMI-8226): 2.37 µM (inactive)
GI50 (786-0): 3.85 µM (inactive)
GI50 (RXF 393): 9.44 µM (inactive)
GI50 (HL-60): 1.59 µM (inactive)
GI50 (EKVX): 6.67 µM (inactive)
GI50 (MDA-MB-435): 2.22 µM (inactive)
GI50 (KM12): 3.63 µM (inactive)
GI50 (OVCAR-4): 6.22 µM (inactive)
GI50 (LOX IMVI): 5.37 µM (inactive)
GI50 (MDA-N): 2.13 µM (inactive)
GI50 (SF-268): 7.55 µM (inactive)
GI50 (CCRF-CEM): 3.43 µM (inactive)
GI50 (SNB-75): 3.44 µM (inactive)
GI50 (HT-29): 3.75 µM (inactive)
GI50 (HCC 2998): 5.43 µM (inactive)
GI50 (TK-10): > 10 µM (inactive)
GI50 (T47D): 5.37 µM (inactive)
GI50 (Malme-3M): 6.58 µM (inactive)
GI50 (MOLT-4): 2.34 µM (inactive)
GI50 (CAKI-1): 7.19 µM (inactive)
GI50 (SK-MEL-5): 4.93 µM (inactive)
GI50 (HOP-92): 1.3 µM (inactive)
GI50 (HOP-62): 3.97 µM (inactive)
GI50 (SK-MEL-28): 4.75 µM (inactive)
GI50 (DU-145): 9.66 µM (inactive)
GI50 (SF-295): 3.05 µM (inactive)
GI50 (COLO 205): 5.66 µM (inactive)
GI50 (SK-OV-3): 6.35 µM (inactive)
GI50 (SW-620): 4.06 µM (inactive)
GI50 (K562): 2.4 µM (inactive)
GI50 (MCF7): 3.35 µM (inactive)
GI50 (PC-3): 4.69 µM (inactive)
GI50 (SR): 2.33 µM (inactive)
GI50 (M14): 5.07 µM (inactive)
GI50 (IGROV-1): 6.28 µM (inactive)
GI50 (MDA-MB-231): 3.72 µM (inactive)
GI50 (UACC-257): 4.3 µM (inactive)
GI50 (A549): 5.51 µM (inactive)

O=C(Nc1ccc([N+](=O)[O-])cc1)c1ccc([N+](=O)[O-])cc1
GI50 (SNB-75): 48.9 µM (inactive) and 70.6 µM (inactive)
GI50 (SF-295): 85.9 µM (inactive) and 50.2 µM (inactive)
